Experimental data reported in article PMC5218480 (PLoS ONE, 2017).

Test system: MV-4-11 cells
Assay: Gene expression microarray analysis (Affymetrix PrimeView) and GSEA
Type: cell-based, human
Set-up: RFU PODN (11730768_x_at) / Fold change /veh PODN (11730768_x_at) / RFU LINC00158 (11744669_a_at) / Fold change /veh LINC00158 (11744669_a_at) / RFU DUSP10 (11751237_a_at) / Fold change /veh DUSP10 (11751237_a_at) / RFU ID3 (11757404_x_at) / Fold change /veh ID3 (11757404_x_at) / RFU PLEKHG5 (11737974_s_at) / Fold change /veh PLEKHG5 (11737974_s_at) / RFU LRRC4B (11730491_at) / Fold change /veh LRRC4B (11730491_at) / RFU GIMAP4 (11747438_a_at) / Fold change /veh GIMAP4 (11747438_a_at) / RFU KRT8 (11758183_x_at) / Fold change /veh KRT8 (11758183_x_at) / RFU CNN1 (11734310_a_at) / Fold change /veh CNN1 (11734310_a_at) / RFU VPS37D (11726825_at) / Fold change /veh VPS37D (11726825_at) / RFU C10orf10 (11716522_x_at) / Fold change /veh C10orf10 (11716522_x_at) / RFU KIR2DL2 /// KIR2DL4 /// KIR2DL5A /// KIR2DL5B /// KIR2DS1 /// KIR2DS2 /// KIR2DS3 /// KIR2DS4 /// KIR3DL3 /// KIR3DL3 /// KIR3DS1 (11738374_at) / Fold change /veh KIR2DL2 /// KIR2DL4 /// KIR2DL5A /// KIR2DL5B /// KIR2DS1 /// KIR2DS2 /// KIR2DS3 /// KIR2DS4 /// KIR3DL3 /// KIR3DL3 /// KIR3DS1 (11738374_at) / RFU C1QL1 (11718748_at) / Fold change /veh C1QL1 (11718748_at) / RFU TMPRSS4 (11747572_a_at) / Fold change /veh TMPRSS4 (11747572_a_at) / RFU HAMP (11756126_x_at) / Fold change /veh HAMP (11756126_x_at) / RFU RNFT2 (11725882_a_at) / Fold change /veh RNFT2 (11725882_a_at) / RFU NR4A2 (11747474_a_at) / Fold change /veh NR4A2 (11747474_a_at) / RFU ABCC12 (11746883_a_at) / Fold change /veh ABCC12 (11746883_a_at) / RFU TMEM136 (11760407_x_at) / Fold change /veh TMEM136 (11760407_x_at) / RFU CLDN22 /// WWC2 (11732394_at) / Fold change /veh CLDN22 /// WWC2 (11732394_at) / RFU HLA-DPB1 (11760878_x_at) / Fold change /veh HLA-DPB1 (11760878_x_at) / RFU SPINT1 (11716480_a_at) / Fold change /veh SPINT1 (11716480_a_at) / RFU GAP43 (11754022_s_at) / Fold change /veh GAP43 (11754022_s_at) / RFU A4GNT (11735810_at) / Fold change /veh A4GNT (11735810_at) / RFU PRB3 (11715151_x_at) / Fold change /veh PRB3 (11715151_x_at) / RFU TUBB4B (11761932_at) / Fold change /veh TUBB4B (11761932_at) / RFU CAPN14 (11732068_a_at) / Fold change /veh CAPN14 (11732068_a_at) / RFU TMCC2 (11721928_a_at) / Fold change /veh TMCC2 (11721928_a_at) / RFU IRGQ (11745062_a_at) / Fold change /veh IRGQ (11745062_a_at) / RFU FAM174B (11720279_a_at) / Fold change /veh FAM174B (11720279_a_at) / RFU TMPRSS4 (11748680_a_at) / Fold change /veh TMPRSS4 (11748680_a_at) / RFU FAM212B (11763350_a_at) / Fold change /veh FAM212B (11763350_a_at) / RFU PLEKHG5 (11743358_a_at) / Fold change /veh PLEKHG5 (11743358_a_at) / RFU ZSCAN30 (11745921_a_at) / Fold change /veh ZSCAN30 (11745921_a_at) / RFU CMKLR1 (11741424_a_at) / Fold change /veh CMKLR1 (11741424_a_at) / RFU LOC101060620 /// MAPK8IP1 (11723275_at) / Fold change /veh LOC101060620 /// MAPK8IP1 (11723275_at) / RFU SPTSSB (11747773_x_at) / Fold change /veh SPTSSB (11747773_x_at) / RFU PRSS12 (11739890_at) / Fold change /veh PRSS12 (11739890_at) / RFU BIN1 (11741810_x_at) / Fold change /veh BIN1 (11741810_x_at) / RFU WNT11 (11732464_a_at) / Fold change /veh WNT11 (11732464_a_at) / RFU C10orf10 (11716521_a_at) / Fold change /veh C10orf10 (11716521_a_at) / RFU C5orf56 (11738089_at) / Fold change /veh C5orf56 (11738089_at) / RFU CYB561 (11721691_x_at) / Fold change /veh CYB561 (11721691_x_at) / RFU ANKRD19P (11752326_a_at) / Fold change /veh ANKRD19P (11752326_a_at) / RFU OR2T12 /// OR2T33 /// OR2T8 (11738714_s_at) / Fold change /veh OR2T12 /// OR2T33 /// OR2T8 (11738714_s_at) / RFU VCAN (11748164_a_at) / Fold change /veh VCAN (11748164_a_at) / RFU JSRP1 (11732532_at) / Fold change /veh JSRP1 (11732532_at) / RFU KRTAP10-11 (11738290_x_at) / Fold change /veh KRTAP10-11 (11738290_x_at) / RFU MYO3A (11730013_a_at) / Fold change /veh MYO3A (11730013_a_at) / RFU EBF3 (11725865_a_at) / Fold change /veh EBF3 (11725865_a_at) / RFU CAMK2N1 (11719241_x_at) / Fold change /veh CAMK2N1 (11719241_x_at) / RFU C5orf56 (11738088_a_at) / Fold change /veh C5orf56 (11738088_a_at) / RFU OLFML3 (11715873_a_at) / Fold change /veh OLFML3 (11715873_a_at) / RFU LOC100653217 /// NTM (11731650_a_at) / Fold change /veh LOC100653217 /// NTM (11731650_a_at) / RFU MAPK11 (11762145_a_at) / Fold change /veh MAPK11 (11762145_a_at) / RFU FIZ1 (11724087_x_at) / Fold change /veh FIZ1 (11724087_x_at) / RFU OASL (11726364_x_at) / Fold change /veh OASL (11726364_x_at) / RFU SOX15 (11748057_x_at) / Fold change /veh SOX15 (11748057_x_at) / RFU CD79A (11719716_a_at) / Fold change /veh CD79A (11719716_a_at) / RFU HIST1H1D (11736915_at) / Fold change /veh HIST1H1D (11736915_at) / RFU CASKIN2 (11723855_a_at) / Fold change /veh CASKIN2 (11723855_a_at) / RFU LOC730098 (11760151_x_at) / Fold change /veh LOC730098 (11760151_x_at) / RFU OR4N2 (11742367_at) / Fold change /veh OR4N2 (11742367_at) / RFU PRRT2 (11749266_a_at) / Fold change /veh PRRT2 (11749266_a_at) / RFU SNX32 (11753110_a_at) / Fold change /veh SNX32 (11753110_a_at) / RFU CDHR5 (11726645_a_at) / Fold change /veh CDHR5 (11726645_a_at) / RFU RCAN1 (11760418_a_at) / Fold change /veh RCAN1 (11760418_a_at) / RFU FAM167A (11723789_a_at) / Fold change /veh FAM167A (11723789_a_at) / RFU FAM26E (11764081_at) / Fold change /veh FAM26E (11764081_at) / RFU ISYNA1 (11749810_s_at) / Fold change /veh ISYNA1 (11749810_s_at) / RFU ACY1 (11761880_at) / Fold change /veh ACY1 (11761880_at) / RFU 11764098_at / Fold change /veh 11764098_at / RFU SAMD14 (11745864_x_at) / Fold change /veh SAMD14 (11745864_x_at) / RFU NPB (11741838_a_at) / Fold change /veh NPB (11741838_a_at) / RFU TMPRSS6 (11731388_a_at) / Fold change /veh TMPRSS6 (11731388_a_at) / RFU KRTAP10-2 (11738614_at) / Fold change /veh KRTAP10-2 (11738614_at) / RFU ARHGAP8 /// PRR5-ARHGAP8 (11727945_x_at) / Fold change /veh ARHGAP8 /// PRR5-ARHGAP8 (11727945_x_at) / RFU KRTAP5-7 /// NADSYN1 (11734609_at) / Fold change /veh KRTAP5-7 /// NADSYN1 (11734609_at) / RFU RASL12 (11751679_a_at) / Fold change /veh RASL12 (11751679_a_at) / RFU CDKN2B (11736163_a_at) / Fold change /veh CDKN2B (11736163_a_at) / RFU PRF1 (11729649_at) / Fold change /veh PRF1 (11729649_at) / RFU, ZNF638 /// ZNF638-IT1 / Fold change vs veh, ZNF638 /// ZNF638-IT1 / RFU, PANK3 / Fold change vs veh, PANK3 / RFU, SH3YL1 / Fold change vs veh, SH3YL1 / RFU, ZEB2 / Fold change vs veh, ZEB2 / RFU, NRIP1 / Fold change vs veh, NRIP1 / RFU, PTTG1IP / Fold change vs veh, PTTG1IP / RFU, CAPN2 / Fold change vs veh, CAPN2 / RFU, MED14 / Fold change vs veh, MED14 / RFU, SNORA58 / Fold change vs veh, SNORA58 / RFU, C1orf63 / Fold change vs veh, C1orf63 / RFU, LRRFIP1 / Fold change vs veh, LRRFIP1 / RFU, NDUFAF7 / Fold change vs veh, NDUFAF7 / RFU, SLC12A2 / Fold change vs veh, SLC12A2 / RFU, IBTK / Fold change vs veh, IBTK / RFU, ESF1 / Fold change vs veh, ESF1 / Fold change vs veh, TMEM50B / RFU, TAOK1 / Fold change vs veh, TAOK1 / RFU, ACBD3 / Fold change vs veh, ACBD3 / RFU, TMA16 / Fold change vs veh, TMA16 / RFU, RWDD3 / Fold change vs veh, RWDD3 / RFU, BCAT1 / Fold change vs veh, BCAT1 / RFU, EDEM3 / Fold change vs veh, EDEM3 / RFU, TMEM33 / Fold change vs veh, TMEM33 / RFU, WDR75 / Fold change vs veh, WDR75 / RFU, AHCTF1 / Fold change vs veh, AHCTF1 / RFU, TFRC / Fold change vs veh, TFRC / RFU, ZDHHC17 / Fold change vs veh, ZDHHC17 / RFU, NOM1 / Fold change vs veh, NOM1 / RFU, ARL8B / Fold change vs veh, ARL8B / RFU, ZBTB11 / Fold change vs veh, ZBTB11 / RFU, TAMM41 / Fold change vs veh, TAMM41 / RFU, KIAA1704 /// LOC100996395 / Fold change vs veh, KIAA1704 /// LOC100996395 / RFU, ING1 / Fold change vs veh, ING1 / RFU, TRMT61B / Fold change vs veh, TRMT61B / RFU, FUBP3 / Fold change vs veh, FUBP3 / RFU, TP53 / Fold change vs veh, TP53 / RFU, TNKS2 / Fold change vs veh, TNKS2 / RFU, ZFP14 / Fold change vs veh, ZFP14 / RFU, ACTR2 / Fold change vs veh, ACTR2 / RFU, PPP3R1 / Fold change vs veh, PPP3R1 / RFU, PIK3R1 / Fold change vs veh, PIK3R1 / RFU, HNRNPA1 / Fold change vs veh, HNRNPA1 / RFU, RNF170 / Fold change vs veh, RNF170 / RFU, ZNF28 / Fold change vs veh, ZNF28 / RFU, RNGTT / Fold change vs veh, RNGTT / RFU, OGT / Fold change vs veh, OGT / RFU, BRD1 / Fold change vs veh, BRD1 / RFU, MARS / Fold change vs veh, MARS / RFU, ZNF655 / Fold change vs veh, ZNF655 / RFU, FAHD1 / Fold change vs veh, FAHD1 / RFU, BDP1 / Fold change vs veh, BDP1 / RFU, LRRCC1 / Fold change vs veh, LRRCC1 / RFU, ARID1A / Fold change vs veh, ARID1A / RFU, ZNF146 / Fold change vs veh, ZNF146 / RFU, ZNF330 / Fold change vs veh, ZNF330 / RFU, GPN3 / Fold change vs veh, GPN3 / RFU, C9orf123 / Fold change vs veh, C9orf123 / RFU, N4BP2L2 / Fold change vs veh, N4BP2L2 / RFU, ARFIP1 / Fold change vs veh, ARFIP1 / RFU, FAM179B / Fold change vs veh, FAM179B / RFU, BCL10 / Fold change vs veh, BCL10 / RFU, UHRF1BP1L / Fold change vs veh, UHRF1BP1L / RFU, BET1 / Fold change vs veh, BET1 / RFU, CNOT2 / Fold change vs veh, CNOT2 / RFU, ZNF268 / Fold change vs veh, ZNF268 / Fold change vs veh, ZNF507 / RFU, DGCR2 / Fold change vs veh, DGCR2 / RFU, WDSUB1 / Fold change vs veh, WDSUB1 / Fold change vs veh, HSP90B1 /// MIR3652 / RFU, ADSS / Fold change vs veh, ADSS / RFU, GK / Fold change vs veh, GK / RFU, ZNF148 / Fold change vs veh, ZNF148 / RFU, TAF9 / Fold change vs veh, TAF9 / RFU, SLC1A5 / Fold change vs veh, SLC1A5 / RFU, SLMO2 / Fold change vs veh, SLMO2 / RFU, ABCC4 / Fold change vs veh, ABCC4 / RFU, LOC101060439 /// RAP1B / Fold change vs veh, LOC101060439 /// RAP1B / RFU, RFX7 / Fold change vs veh, RFX7 / RFU, GTPBP10 / Fold change vs veh, GTPBP10 / RFU, CNEP1R1 / Fold change vs veh, CNEP1R1 / RFU, BIVM-ERCC5 /// ERCC5 / Fold change vs veh, BIVM-ERCC5 /// ERCC5 / RFU, ILF3 / Fold change vs veh, ILF3 / RFU 11762660_at / Fold change /veh 11762660_at / RFU VCAN (11757783_s_at) / Fold change /veh VCAN (11757783_s_at) / RFU DDX43 (11728927_at) / Fold change /veh DDX43 (11728927_at) / RFU KRT8 (11758188_x_at) / Fold change /veh KRT8 (11758188_x_at) / RFU NKD1 (11759106_at) / Fold change /veh NKD1 (11759106_at) / RFU SRD5A1 (11742802_a_at) / Fold change /veh SRD5A1 (11742802_a_at) / RFU TPSAB1 /// TPSB2 (11721975_s_at) / Fold change /veh TPSAB1 /// TPSB2 (11721975_s_at) / RFU GSTM3 (11746129_a_at) / Fold change /veh GSTM3 (11746129_a_at) / RFU IL23R (11737362_x_at) / Fold change /veh IL23R (11737362_x_at) / RFU TMEM51 (11727254_a_at) / Fold change /veh TMEM51 (11727254_a_at) / RFU PIWIL2 (11732686_x_at) / Fold change /veh PIWIL2 (11732686_x_at) / RFU ORM1 (11744905_x_at) / Fold change /veh ORM1 (11744905_x_at) / RFU CCDC152 (11743942_at) / Fold change /veh CCDC152 (11743942_at) / RFU ECM1 (11717891_a_at) / Fold change /veh ECM1 (11717891_a_at) / RFU IL23R (11748794_a_at) / Fold change /veh IL23R (11748794_a_at) / RFU TNFAIP8L3 (11732012_x_at) / Fold change /veh TNFAIP8L3 (11732012_x_at) / RFU MBOAT4 (11741988_at) / Fold change /veh MBOAT4 (11741988_at) / RFU 11764193_at / Fold change /veh 11764193_at / RFU TMEM53 (11763286_at) / Fold change /veh TMEM53 (11763286_at) / RFU MAGEB2 (11727129_at) / Fold change /veh MAGEB2 (11727129_at) / RFU TMEM200A (11744735_a_at) / Fold change /veh TMEM200A (11744735_a_at) / RFU CCDC152 (11751479_a_at) / Fold change /veh CCDC152 (11751479_a_at) / RFU FAM211A (11726209_a_at) / Fold change /veh FAM211A (11726209_a_at) / RFU RGS16 (11746705_a_at) / Fold change /veh RGS16 (11746705_a_at) / RFU VCAN (11755009_s_at) / Fold change /veh VCAN (11755009_s_at) / RFU RHOB (11743442_s_at) / Fold change /veh RHOB (11743442_s_at) / RFU RGS16 (11720943_a_at) / Fold change /veh RGS16 (11720943_a_at) / RFU RGS16 (11720944_at) / Fold change /veh RGS16 (11720944_at) / RFU, VPS4B / Fold change vs veh, VPS4B / RFU, CREB1 / Fold change vs veh, CREB1 / RFU, DNAJC13 / Fold change vs veh, DNAJC13 / RFU, GNAQ / Fold change vs veh, GNAQ / RFU, CDK5R1 / Fold change vs veh, CDK5R1 / RFU, ZRANB3 / Fold change vs veh, ZRANB3 / RFU, CUL4A / Fold change vs veh, CUL4A / RFU, CCNY / Fold change vs veh, CCNY / RFU, UFL1 / Fold change vs veh, UFL1 / RFU, COG3 / Fold change vs veh, COG3 / RFU, DIAPH2 / Fold change vs veh, DIAPH2 / RFU, SKA2 / Fold change vs veh, SKA2 / RFU, AFF3 / Fold change vs veh, AFF3 / RFU, LMF1 / Fold change vs veh, LMF1 / RFU, IPO11 / Fold change vs veh, IPO11 / RFU, DFFB / Fold change vs veh, DFFB / RFU, FOXP1 / Fold change vs veh, FOXP1 / RFU, CARD8 / Fold change vs veh, CARD8 / RFU, STRN3 / Fold change vs veh, STRN3 / RFU, ADK / Fold change vs veh, ADK / RFU, RASSF2 / Fold change vs veh, RASSF2 / RFU, WIPF1 / Fold change vs veh, WIPF1 / RFU, LARP1B / Fold change vs veh, LARP1B / RFU, RASA1 / Fold change vs veh, RASA1 / RFU, RB1 / Fold change vs veh, RB1 / RFU, PPFIA1 / Fold change vs veh, PPFIA1 / RFU, MAT2A / Fold change vs veh, MAT2A / RFU, CCT5 / Fold change vs veh, CCT5 / RFU, WDR92 / Fold change vs veh, WDR92 / RFU, CUX1 / Fold change vs veh, CUX1 / RFU, TTC7A / Fold change vs veh, TTC7A / RFU, TMEM135 / Fold change vs veh, TMEM135 / RFU, DEPTOR / Fold change vs veh, DEPTOR / RFU, CPM / Fold change vs veh, CPM / RFU, DNAJB6 / Fold change vs veh, DNAJB6 / RFU, CACNA2D3 / Fold change vs veh, CACNA2D3 / RFU, DTX4 / Fold change vs veh, DTX4 / RFU, TFCP2 / Fold change vs veh, TFCP2 / RFU, GMCL1 /// GMCL1P1 / Fold change vs veh, GMCL1 /// GMCL1P1 / RFU, AEBP2 / Fold change vs veh, AEBP2 / RFU, SNHG1 /// SNORD22 /// SNORD25 /// SNORD26 /// SNORD27 /// SNORD28 /// SNORD29 /// SNORD31 / Fold change vs veh, SNHG1 /// SNORD22 /// SNORD25 /// SNORD26 /// SNORD27 /// SNORD28 /// SNORD29 /// SNORD31 / Fold change (Aza/veh), C12orf56 (ProbeSet 11735607_a_at) / Fold change (ACY-1035/veh), C12orf56 (ProbeSet 11735607_a_at) / Fold change (Aza/veh), FGFR1OP (ProbeSet 11751329_s_at) / Fold change (ACY-1035/veh), FGFR1OP (ProbeSet 11751329_s_at) / Fold change (Aza/veh), VPS36 (ProbeSet 11739960_a_at) / Fold change (ACY-1035/veh), VPS36 (ProbeSet 11739960_a_at) / RFU SYPL1 (11715823_x_at) / Fold change /veh SYPL1 (11715823_x_at) / RFU IGFBP7 (11715501_s_at) / Fold change /veh IGFBP7 (11715501_s_at) / RFU REEP3 (11722064_at) / Fold change /veh REEP3 (11722064_at) / RFU IGLL1 (11728026_x_at) / Fold change /veh IGLL1 (11728026_x_at): dose or concentration left out as unconfirmed
Details: ProbeSet 11732306_x_at; LIST D

SMILES: Nc1ccc(-c2cccs2)cc1NC(=O)c1ccc2c(c1)cc(C1CC1)n2CCN1CCOCC1 [ACY-1035]
- Fold change vs veh, CREB1: 0.87
